In US20240065998A1, “MONOACYLGLYCEROL AND FREE FATTY ACID-BASED COMPOSITIONS, METHODS OF MANUFACTURING AND USE OF THE SAME” (priority 2021, published 2024):
Like-named read-outs stand apart in the source and are kept apart here.

Key:
[1] = cited from earlier work; for HLB: exemplary HLB value of the single emulsifier
[2] = test system: Respiratory Syncytial Virus (RSV), Herpes Simplex Virus (HSV), H1N1 flu virus, and SARS-CoV-2; type: cell-based; conditions: nEMO at 0.5 to 50 mg/mL, EtOH 70%
Source text: Table 73 below provides formulations of a nEMO sanitizer with 0.5% nEMO, 29.5% glycerol, and 70% […].

[3] = HLB values of compositional components; conditions: share in the oil phase of ACv14 (% of oil phase x rHLB); Total = sum
Source text: HLB is typically considered when planning oil-in-water cream formulations according to the requirements of the cream.
If the Oat EMO is omitted and the Flax FFA oil raised, then a higher rHLB is required, meaning that a larger percentage of the emulsifier can be high HLB (S-20). This 0% Oat MAG (EMO) and 4% Flaxseed FFA oil combo gives an rHLB value of 12.64, which would coincide with a 25/75 ratio of S-2/S-20 or Monolaurin/S-20. This would minimize the amount of S-2 which caused larger coalescence at a 1:1 ratio overnight.

SARS-CoV-2, USA_WA1/2020 = type: cell-based; conditions: 70%, 2 min, 37 ± 2° C.
[4] = test system: titer assay cells (MA-104, Vero E6, Vero 76)
[5] = test system: Respiratory syncytial virus (RSV, A2); type: cell-based; conditions: 70%, 2 min, 37 ± 2° C.; for LRV: VC titer 3.3
[6] = test system: Herpes simplex-1 (HSV-1, H1KOS S1); assay: Virucidal assay, 2 minute contact, end-point dilution (CCID50, LRV); type: cell-based; conditions: 70%, 2 min, 37 ± 2° C.

Compound: Glyceryl Stearate SE
- HLB [1]: 5.8

Compound: Steareth-2
- HLB [1]: 4.9

Compound: CCO [EtOH]
- Virucidal Activity ([2]; H1N1, Log10 of initial virus concentration 5.7): >99.99%
- Virucidal Activity ([2]; HSV, Log10 of initial virus concentration 5): >99.99%
- Virucidal Activity ([2]; RSV, Log10 of initial virus concentration 3.3): >99%
- Virucidal Activity ([2]; SARS-COV-2, Log10 of initial virus concentration 5): >99.99%

Compound: CCCCCCCCCCCCCCCCO [Cetyl Alcohol]
- Required HLB (rHLB) ([1]; exemplary value of the oil phase component): 15.5
- rHLB of oil percentage [3]: 3.69

Compound: CCO [Ethanol]
- Virus Titer (SARS-CoV-2, USA_WA1/2020; Table 59A): <0.7 log10 CCID50 of virus per 0.1 mL
- LRV (SARS-CoV-2, USA_WA1/2020; Table 59A, VC titer 5.3): >4.6
- Virus Titer (SARS-CoV-2, USA_WA1/2020; Table 59B): <0.7 log10 CCID50 of virus per 0.1 mL
- LRV (SARS-CoV-2, USA_WA1/2020; Table 59B, VC titer 5.0): >4.3
- Toxicity (highest dilution of the endpoint titer with full (80-100%) cytotoxicity) [4]: None
- Virus Titer ([5]; Table 57A): <0.7 log10 CCID50 of virus per 0.1 mL
- LRV ([5]; Table 57A): >2.6
- Virus Titer ([5]; Table 57B): <0.7 log10 CCID50 of virus per 0.1 mL
- LRV ([5]; Table 57B): >2.6
- LRV ([6]; Table 60A, VC titer 4.5): >3.8
- LRV ([6]; Table 60B, VC titer 5.0): >4.3

Compound: CCCCCCCCCCCC(=O)OCC(O)CO (centres unmarked) [Glyceryl Laurate]
- HLB [1]: 5.2
